According to patent US8193245B2, “Composition comprising oleic acid and the use thereof” (University-Industry Cooperation Group of Kyung Hee …, priority 2005, dated 2012):

Key:
[1] = test system: neuronal cell injury caused by focal cerebral ischemia; assay: Neuroprotective activity, middle cerebral artery occlusion (intraluminal suture) with TTC staining; assay type: in vivo, Sprague-Dawley rats
[2] = test system: ICR mice; assay: Acute toxicity test on ICR mice; assay type: in vivo
Experimental: (§1) The acute toxicity tests on ICR mice (mean body weight 25±5 g) and Sprague-Dawley rats (300±10 g, Jung-Ang Lab Animal Inc.) were performed using the oleic acid of the Example 1. Four group consisting of 10 mice or rats was administrated orally with 100 mg/kg, 250 mg/kg, 500 mg/kg and 1000 mg/kg of test sample or solvents (0.2[…], i.p.) respectively and observed for 2 weeks.
(§2) The acute toxicity tests on ICR mice and Sprague-Dawley rats were performed using the extract of the Example 1. Four group consisting of 10 mice or rats was administrated intraperitoneally with 25 mg/kg, 50 mg/kg, 100 mg/kg and 200 mg/kg of test sample or solvents (0.2[…], i.p.), respectively and observed for 24 hours.

[3] = test system: Sprague-Dawley rats; assay: Acute toxicity test on Sprague-Dawley rats; assay type: in vivo
Experimental: as §1, §2

[4] = intraperitoneally 25, 50, 100 and 200 mg/kg, observed for 24 hours
[5] = orally 100, 250, 500 and 1000 mg/kg, observed for 2 weeks

SMILES: CCCCCCCC/C=C\CCCCCCCC(=O)O [oleic acid, Cis-9-octadecenoic acid]
- staining area with TTC (white) versus control group ([1]; 1 mg/kg, 10 mg/kg, 100 mg/kg, 2 h MCA occlusion, 24 hours after reperfusion, FIG. 1): smaller staining area with TTC (white) due to little damage of neuronal cell than control group
- protective effect on neuronal cell death compared with control group ([1]; group C: 10 mg/kg): 32.9%
- protective effect on neuronal cell death compared with control group ([1]; group D: 100 mg/kg): 64.9%
- treatment-related effects on mortality, clinical signs, body weight changes and gross findings [2, 4]: no treatment-related effects
- treatment-related effects on mortality, clinical signs, body weight changes and gross findings [2, 5]: no treatment-related effects
- treatment-related effects on mortality, clinical signs, body weight changes and gross findings [3, 4]: no treatment-related effects
- treatment-related effects on mortality, clinical signs, body weight changes and gross findings [3, 5]: no treatment-related effects
